# Assay results: patent US9296692B2, “Use of indolyl and indolinyl hydroxamates for treating heart failure of neuronal injury” (TAIPEI MEDICAL UNIVERSITY, priority 2011, dated 2016)
# Where “and” joins values, the source holds several entries; their conditions need not be identical. Equal values may be shown once.
# What was measured:
# [1] = tested on: TBI rats; assay: Skilled forelimb reaching task in TBI rats; assay type: in vivo, Sprague-Dawley rats; conditions: 30 mg/Kg intravenous at 0-7 days after TBI
# Description: Adult male Sprague-Dawley rats (each weighted about 250-300 g, and were purchased from BioLASCO Taiwan Co., Ltd) were used in this study. The rats were randomly allocated into three groups: (i) TBI+test Compound (e.g., Compound 1 or valproic acid (VPA)), (ii) TBI+VEH (i.e., vehicle-treated TBI rats), and (iii) Sham (sham-operated control). They were housed in an animal room under temperature control (24-25) and 12:12 light-dark cycle. Standard laboratory rat chow and tap water were available ad libitum. All animal experiments were carried out in accordance with the guidelines established by the Institutional Animal Care and Utilization Committee of the Taipei Medical University (Taipei, Taiwan, R.O.C.).
# Surgical anesthesia was induced by ketamine (90 mg/kg body weight) and xylazine (10 mg/kg body weight), which were administered intraperitoneally (ip). Following anesthesia, the animals were secured in a stereotaxic frame and ventilated mechanically. A cortical contusion was produced on the exposed cortex using a controlled impactor device TBI-0200 TBI Model system (Precision Systems and Instrumentation). […]
# All test animals were trained to criterion on the skilled forelimb reaching task. […] During the initial days of training, limb preference was determined and placement of pellets was adjusted to favor the use of the preferred forelimb. […]
# [2] = tested on: MCAO rats; assay: Infarction volume (TTC staining) in middle cerebral artery occlusion (MCAO) rats; assay type: in vivo; conditions: 30 mg/Kg intravenous, N=5 per group, 3 days
# Protocol: (§1) In this example, effects of compounds of this invention were varified using ischematic stroke animal model.
# (§2) The bilateral common carotid arteries were isolated through a neck incision and occluded with aneurysm clips. […] After 60 minutes, rats were re-anesthetized, the carotid clips were removed, and the neck incision was closed. The rats were returned to their home cage after fully recovered from anesthesia. The sham surgery is similar to the MCAO surgery, which included the step of opening the dura, yet without the steps of isolating, clipping, or coagulating neither the MCA nor carotid vessel.
# Compound 1 was dissolved in 5% ethanol, 35% polyethylene glycol and 60% normal saline at a concentration of 15 mg/ml. […]
# Medicaments prepared in accordance with steps described in Example 4.2 were given to the 3 groups of MCAO rats of Example 4.1 (N=5, for each group), and the infraction area of these animals were then stained and estimated by similar steps described in Examples 3.4 and 3.5, and results are illustrated in FIGS. 7A and 7B. […] In another example, after induction of MACO, rats were infused with compound 1 at 30 min, 2 hrs, 4 hrs, and 24 hrs, respectively; and the infarction volume was calculated 3 days after MCAO.
# [3] = tested on: cAMP response element-binding protein (CREB); assay: Western blot analysis of CREB in brain of MCAO rats; assay type: in vivo; conditions: 30 mg/Kg intravenous, RA, LA, RP, LP brain areas
# Protocol: as §1, §2
# Compound 1 was dissolved in 5% ethanol, 35% polyethylene glycol and 60% normal saline at a concentration of 15 mg/ml. All test animals received intravenous injection of either compound 1 (30 mg/Kg), valproic acid (VPA, 30 mg/kg) or vehicle (5% ethanol, 35% polyethylene glycol and 60% normal saline) at 0-7 days after MCAO.
# Collected protein samples were mixed with Laemli sample buffer. […] The Immunoblottingquantification was fulfilled via Quantity OneTMsoftware (Bio-Rad).
# Level of CREB phosphorylaiton was measured by western blot ananlysis in accordance with steps described in Example 4.3. […]
# [4] = tested on: heart failure (HF) rats; assay: Echocardiography in isoproterenol-induced heart failure (HF) rats; assay type: in vivo, Wistar rats
# Protocol: Adult male Wistar rats (each weighted about 240-270 g, and were purchased from BioLASCO Taiwan Co., Ltd) were used in this study. […] Heart failure (HF) rats received one subcutaneous injection of isoproterenol at a dosage of 100 mg/Kg. They were housed in an animal room under temperature control (24-25° C.) and 12:12 light-dark cycle. Standard laboratory rat chow and tap water were available ad libitum. […] A midline thoracotomy was then performed, and the heart was removed, weighed, and dissected from each rat for further analysis. Echocardiograms were performed before the animals were euthanized, using HP Sonos 5500 system with a 15-6L probe (6 to 15 MHz, SONOS 5500, Agilent Technologies, Palo Alto, Calif.) or Vivid I ultrasound cardiovascular system (GE Healthcare, Haifa, Israel). LV end-diastolic diameter (LVEDD), LV end-systolic diameter (LVESD), and wall thickness were measured from M-mode tracings. The LV fractional shortening percentage was calculated as ([LVEDD-LVESD]/LVEDD)×100. The LV ejection fraction was calculated by Techholz's formula. All quantitative data are expressed as the mean±S.E.M, and un-paired T test was used to compare the differences between groups.
# [5] = HF rats, after treatment, 100 mg/kg oral gavage once daily for 7 days, mean±S.E.M
# [6] = HF rats, before treatment (baseline of the group), n = 7, mean±S.E.M
smiles,measurement,setting,value
"CCCC(CCC)C(=O)O [VPA, valproic acid]","Behaviour function deficits (skilled forelimb reaching task), FIG. 6",[1],significantly improve the behaviour function deficits caused by TBI
same,"Infarction volume, FIG. 7A",[2],significant reduction of infarction volume
same,"Up-regulation of CREB (p-CREB and t-CREB), FIG. 8",[3],up-regulation of cAMP response element-binding protein (CREB)
"O=C(/C=C/c1ccc2c(ccn2S(=O)(=O)c2ccccc2)c1)NO [compound 1, 3-(1-benzensulfonyl-1H-indol-5-yl)-N-hydroxy-acrylamide]",Fraction shortening,[4]; [5],47 ± 3 %
same,IVSd,[4]; [5],1.3 ± 0.1 mm
same,LVEDd,[4]; [5],4.6 ± 0.2 mm
same,LVESd,[4]; [5],2.4 ± 0.2 mm
same,Ejection fraction,"[4]; HF rats, after treatment, 100 mg/kg oral gavage once daily for 7 days, mean±S.E.M, 100 mg/kg",81% and 81 ± 3 %
same,Ejection fraction,[4]; [6],68 ± 2%
same,Fraction shortening,[4]; [6],38 ± 3%
same,IVSd,[4]; [6],1.4 ± 0.1 mm
same,LVEDd,[4]; [6],5.4 ± 0.4 mm
same,LVESd,[4]; [6],3.4 ± 0.3 mm
"NNc1nncc2ccccc12 [hydralazine, reference compound]",Ejection fraction,"[4]; HF rats (isoproterenol 150 mg/kg s.c.), after 10 mg/kg i.p. once daily for 7 days, data not shown",76±10%
same,Ejection fraction,"[4]; HF rats (isoproterenol 150 mg/kg s.c.), starting value that the ejection fraction increased from, data not shown",59±4%
